Assay results reported in patent US6057333A, “Discorhabdin compounds and methods of use” (Harbor Branch Oceanographic Institution, Inc., priority 1998, dated 2000).
Values after ≈ are worked out from the molar mass of the structure shown.

Assays:
P388 cells = assay: P388 antiproliferative (MTT) assay; assay type: cell-based; conditions: Mus musculus, 48 hr exposure
Description: (§1) P388 cells are obtained from Dr. J. Mayo, National Cancer Institute, Bethesda, Md., and A549 cells are obtained from American Type Culture Collection, Rockville, Md. All cell lines are maintained in Roswell Park Memorial Institute (RPMI) medium 1640 supplemented with 10% horse serum. All cell lines are cultured in plastic tissue culture flasks and kept in an incubator at 37° C. in humidified air containing 5% CO2. Prior to testing, antibiotic-free stock cultures of each of the cell lines are subcultured to 10^6 cells/ml by dilution in fresh growth medium at 2 to 3 day intervals.
(§2) To assess the antiproliferative effects of agents against the P388 cell line, 200 μl cultures (96-well tissue culture plates, Nunc, Denmark) are established at 1×10^5 cells/ml in drug-free medium or medium containing the test agent at 10.0, 1.0, 0.10 and 0.010 μg/ml. Solvent for all dilutions ethanol. All experimental cultures are initiated in medium containing Gentamycin sulfate (50 μg/ml; Schering Corporation, Kenilworth, N.J.). After48 hr exposures, P388 cells are enumerated using 3-[4,5-Dimethylthiazol-2-yl]-2,5-diphenyltetrazolium bromide (MTT).
To quantitate the effects on cell proliferation and resulting IC50 values, 75 μl of warm growth media containing 5 mg/ml MTT is added to each well, cultures returned to the incubator, and left undisturbed for 90 minutes. […]

calcineurin = molecular target: T1, calcineurin (Bos taurus, UniProt P48452); assay: Calcineurin assay (p-nitrophenylphosphate phosphatase activity); assay type: biochemical, bovine; conditions: pH 7.5, 30° C., 60 min
T1 construct: Calcineurin was prepared from bovine brain; from tissue; host or cells: bovine brain
T1 sequence (P63099 2-170, other chains not shown): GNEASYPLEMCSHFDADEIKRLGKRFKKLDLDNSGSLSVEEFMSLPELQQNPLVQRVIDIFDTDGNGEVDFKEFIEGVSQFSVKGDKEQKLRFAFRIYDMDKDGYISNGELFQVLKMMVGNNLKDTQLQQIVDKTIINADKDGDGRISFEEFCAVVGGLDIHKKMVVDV
Description: Calmodulin was prepared from bovine brain according to the method of Wallace et al. ([1983] Meth. Enzymol. 102:39-47). The calmodulin was either used directly or coupled to sepharose-4B to form the calmodulin-sepharoseaffinity column necessary for the isolation of calcineurin. Calcineurin was prepared from bovine brain by the method of Tallant et al. ([1983] Meth. Enzymol. 102:244-286), concentrated, aliquoted and stored at -80° C.
Calcineurin activity was assayed in 96-well microtiter plates in a final volume of 50 μl. Each well contained 50 mM Tris-HCl pH 7.5, 0.5 mM MnCl2, 0.05 mM CaCl2, 1 mM DTT, 50 mM p-nitrophenylphosphate (pNPP), 0.3 μg calcineurin, a five-fold excess of calmodulin, and either test samples or control compounds. Plates were incubated at 30° C. for 60 min. Liberated p-nitrophenol was determined by the change in absorbance at 405 nm.

A549 cells = assay: A549 antiproliferative (MTT) assay; assay type: cell-based; conditions: Homo sapiens, additional 48 hr exposure prior to MTT addition
Description: as §1, §2
[…] Results are expressed as percent inhibition compared to the negative (no drug) control. Positive drug controls are included to monitor drug sensitivity of each of the cell lines. […]

CPP32 = molecular target: T2, CPP32 (Homo sapiens, UniProt P42574); assay: Caspase inhibition (CPP32, Ac-DEVD-pNA substrate); assay type: biochemical; conditions: Ac-DEVD-pNA 25 μM, pH 7.5, 30 degrees C., 30 minutes
T2 construct: BASF, Worchester, Mass; (gift, not a purchase)
T2 sequence (P42574 29-175 limits assumed): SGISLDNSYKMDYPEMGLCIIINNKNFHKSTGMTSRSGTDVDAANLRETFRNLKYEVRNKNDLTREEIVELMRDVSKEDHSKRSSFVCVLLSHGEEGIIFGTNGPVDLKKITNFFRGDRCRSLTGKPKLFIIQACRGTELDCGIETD
T2 sequence (P42574 176-277 limits assumed): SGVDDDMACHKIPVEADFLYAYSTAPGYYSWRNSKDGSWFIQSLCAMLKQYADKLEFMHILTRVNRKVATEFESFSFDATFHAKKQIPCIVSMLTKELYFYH
Description: Test samples were aliquoted into 96 well microtiter plates and allowed to air dry. The stock CPP32 enzyme (kindly supplied by BASF, Worchester, Mass.) was diluted by adding 10 μl of the enzyme to 17 ml of reaction buffer (50 mM Hepes pH 7.5; 10% glycerol; 5 mM Dithiothreitol; 0.5 mM EDTA). A volume of 180 μl of the diluted enzyme was added to wells containing the dried test samples, or to empty wells (control). The contents of the microtiter wells were mixed by shaking on a plate shaker. Plates were incubated at 30 degrees C. for 5 minutes. […] Controls for each plate consisted of an inhibitor control (50 nM DEVD-CHO final concentration); positive control (enzyme and substrate) and negative control (reaction buffer and substrate). The plates were covered with aluminum foil and mixed using a plate shaker for 5 minutes then incubated at 30 degrees C. for 30 minutes. Plates were read using on a plate reader with absorbance measured at 405 nm. Data was expressed as percent inhibition by comparing the absorbance values of test samples with those of the positive control (no sample).

Cn1cc2c3c1C(=O)C1=C(C3=NCC2)C2(C=C(Br)C(=O)C(Br)=C2)CCN1 [discorhabdin P]
IC50 (P388 cells): 0.025 µg/mL
inhibition at 0.5 µg/mL (calcineurin; at 0.5 μg/ml): 33%
inhibition at 5 µg/mL (calcineurin; at 5 μg/ml): 64%
IC50 (calcineurin): 1150 nM
IC50 (A549 cells): 0.41 µg/mL
IC50 (CPP32): 0.37 µg/mL (≈ 0.775 µM)
